Among the data in publication PMC2858983 (Clinical cancer research : an official journal of the …, 2010) are IC50 values, retold here.

Counter-ions that a name gives are not always drawn.

The target of this assay is inducible nitric oxide synthase (iNOS) (Homo sapiens, UniProt P35228). The assay can be described thus: NO release. The format is cell-based.
Chain of inducible nitric oxide synthase (iNOS) (P35228 whole entry): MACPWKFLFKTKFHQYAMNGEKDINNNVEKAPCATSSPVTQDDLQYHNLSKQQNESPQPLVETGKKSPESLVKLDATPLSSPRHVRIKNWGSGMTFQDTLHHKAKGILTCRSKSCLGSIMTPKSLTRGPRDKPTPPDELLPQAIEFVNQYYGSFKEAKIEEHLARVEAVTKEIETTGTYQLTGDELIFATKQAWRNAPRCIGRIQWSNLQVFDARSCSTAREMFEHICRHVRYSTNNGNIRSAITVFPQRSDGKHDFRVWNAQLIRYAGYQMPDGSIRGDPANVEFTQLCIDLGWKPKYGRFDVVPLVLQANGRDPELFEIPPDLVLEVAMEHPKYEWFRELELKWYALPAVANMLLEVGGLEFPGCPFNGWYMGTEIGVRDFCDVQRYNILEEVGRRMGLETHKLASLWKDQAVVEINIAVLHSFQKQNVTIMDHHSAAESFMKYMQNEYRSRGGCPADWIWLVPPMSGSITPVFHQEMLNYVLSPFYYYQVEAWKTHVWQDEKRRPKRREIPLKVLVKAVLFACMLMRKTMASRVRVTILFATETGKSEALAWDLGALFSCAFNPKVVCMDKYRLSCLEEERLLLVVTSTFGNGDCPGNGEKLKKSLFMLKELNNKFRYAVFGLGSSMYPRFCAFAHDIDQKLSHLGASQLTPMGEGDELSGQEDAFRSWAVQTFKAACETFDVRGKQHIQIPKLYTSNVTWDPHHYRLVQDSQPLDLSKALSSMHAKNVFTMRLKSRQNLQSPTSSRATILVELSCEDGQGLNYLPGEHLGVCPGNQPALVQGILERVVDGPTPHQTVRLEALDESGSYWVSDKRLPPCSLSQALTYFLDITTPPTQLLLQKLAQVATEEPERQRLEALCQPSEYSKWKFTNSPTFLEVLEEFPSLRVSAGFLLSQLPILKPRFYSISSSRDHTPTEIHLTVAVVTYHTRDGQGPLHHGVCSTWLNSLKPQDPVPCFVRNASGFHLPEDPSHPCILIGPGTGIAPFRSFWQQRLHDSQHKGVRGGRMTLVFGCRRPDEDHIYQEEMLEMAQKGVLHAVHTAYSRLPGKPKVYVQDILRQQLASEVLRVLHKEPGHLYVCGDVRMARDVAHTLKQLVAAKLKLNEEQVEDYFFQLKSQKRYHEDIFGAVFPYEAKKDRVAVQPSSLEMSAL

The molecule `CC(=N)NCCCC[C@H](N)C(=O)O` [L-nil, N6-(1-Iminoethyl)-L-lysine-dihydrochloride] showed an IC50 of 595 µM.

The IC50 is the concentration that inhibits the measured activity by half. Read a low IC50 as greater potency in that assay.
